Reference: patent US20250276955A1, “CORONAVIRUS MAIN PROTEASE INHIBITORS AND METHODS USING SAME” (Baylor College of Medicine, priority 2021, published 2025)
Converted amounts (≈) assume the structure as drawn. “Also recorded” adds a separate entry of the source. Like-named read-outs stand apart in the source and are kept apart here.

Legend:
human thrombin = target: T1, human thrombin (Homo sapiens, UniProt P00734); test: Thrombin fluorescence assay; type: biochemical
T1 construct: purchased Sigma-Aldrich MAK243

Human Cathepsin B = target: T2, Human Cathepsin B (Homo sapiens, UniProt P07858); test: Cathepsin B assay; type: biochemical
T2 construct: purchased BPS Bioscience 79590
Procedure: (§1) A kit from BPS Bioscience (#79590) was used with adjustments to the manufacturer's protocol as follows: The activated enzyme was diluted 250-fold just before use, and the reaction was run at RT in black 96 half-area plates in a total reaction volume of 50 uL containing 0.01% Tween-20. Instead of measuring endpoints at 60 min the increase in fluorescence (Ex 360 nm, Em 460 nm) per second (RFU/s) was obtained from linear progress curves over 10 min. Fractional activities were calculated from reactions with no inhibitors. E-64 was used as a positive control.

renin = target: T3, renin (Homo sapiens, UniProt P00797); test: Renin assay; type: biochemical
T3 construct: purchased BPS Bioscience 80211
T3 sequence (P00797 67-406): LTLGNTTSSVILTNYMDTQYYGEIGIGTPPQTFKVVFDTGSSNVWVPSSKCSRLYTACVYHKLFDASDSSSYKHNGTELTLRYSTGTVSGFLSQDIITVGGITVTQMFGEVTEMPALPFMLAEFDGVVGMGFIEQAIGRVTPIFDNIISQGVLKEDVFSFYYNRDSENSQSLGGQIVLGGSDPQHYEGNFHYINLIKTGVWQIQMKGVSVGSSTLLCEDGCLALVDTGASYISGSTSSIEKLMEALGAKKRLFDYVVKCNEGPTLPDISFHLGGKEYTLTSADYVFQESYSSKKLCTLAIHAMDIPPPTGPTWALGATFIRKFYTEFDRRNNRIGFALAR
Procedure: as §1, with “(#80211)” for “(#79590)”, “The” for “The activated enzyme was diluted 250-fold just before use, and the”, “30” for “60”, “490” for “360”, “520” for “460”, “Aliskiren” for “E-64”

[1] = target: T4, matrix metallopeptidase 1 (MMP-1) (Homo sapiens, UniProt P03956); test: MMP-1 assay; type: biochemical
T4 construct: purchased Biovision K794-100
T4 sequence (P03956 100-469): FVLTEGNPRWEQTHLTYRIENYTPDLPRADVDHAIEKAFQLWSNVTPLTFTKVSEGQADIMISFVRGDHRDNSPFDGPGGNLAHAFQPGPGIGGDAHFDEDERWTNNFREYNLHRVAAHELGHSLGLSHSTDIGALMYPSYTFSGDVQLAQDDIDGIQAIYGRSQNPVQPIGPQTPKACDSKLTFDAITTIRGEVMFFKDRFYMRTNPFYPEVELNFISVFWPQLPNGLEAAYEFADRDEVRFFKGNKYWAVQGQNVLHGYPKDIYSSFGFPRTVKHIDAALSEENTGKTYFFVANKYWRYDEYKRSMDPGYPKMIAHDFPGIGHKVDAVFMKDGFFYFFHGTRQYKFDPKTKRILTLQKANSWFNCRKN
Procedure: A kit from Biovision (#K794-100) was used with adjustments to the manufacturer's protocol as follows: The enzyme was reconstituted according to protocol and then diluted 5-fold with assay buffer just before use. The unknown fluorogenic substrate was further diluted 10-fold with the provided assay buffer. The reaction was run at 37 C in black 96 half-area plates in a total reaction volume of 50 μL containing 0.01% Tween-20. The increase in fluorescence (Ex 490 nm, Em 520 nm) per second (RFU/s) was obtained from linear progress curves over 10 min. Fractional activities were calculated from reactions with no inhibitors. GM 6001 was used as a positive control.

Pharmacokinetics in mice = type: in vivo; conditions: 50 mg/kg intraperitoneal, plasma
Procedure: The whole blood samples were span at 2,000 rcf for 5 min for the separation of plasma. […] The concentration of these compounds in plasma were quantified using a calibration curve.

HepG2 cells = test: HepG2 cytotoxicity assay (XTT); conditions: Homo sapiens, HepG2, 24 h, read-out: HepG2 cell viability IC50
SARS-COV-2 M^pro-His6 = SARS-COV-2 M^pro-His6 (Severe acute respiratory syndrome coronavirus 2, UniProt P0DTD1); test: biochemical; type: biochemical
[2] = target: SARS-COV-2 M^pro (authentic N- and C-termini) (Severe acute respiratory syndrome coronavirus 2, UniProt P0DTD1); test: biochemical; type: biochemical
[3] = target: SARS-CoV-2 main protease (M^pro) (Severe acute respiratory syndrome coronavirus 2, UniProt P0DTD1); test: Protein thermal shift stability assay (SYPRO Orange); type: binding
HOVPro-Gi.1 = target: T5, HOVPro-Gi.1 (Norovirus, UniProt Q83883); test: Thermal shift, HOVPro-Gi.1; type: binding
T5 construct: HOVPro-Gi.1
T5 sequence (Q83883 1101-1281): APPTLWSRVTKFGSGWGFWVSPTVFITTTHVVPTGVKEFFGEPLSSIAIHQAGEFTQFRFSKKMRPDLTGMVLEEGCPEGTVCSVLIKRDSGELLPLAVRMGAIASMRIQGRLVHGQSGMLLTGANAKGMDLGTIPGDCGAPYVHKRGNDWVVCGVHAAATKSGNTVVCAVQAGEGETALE

HOVPro-Gii.4 = test: Thermal shift, HOVPro-Gii.4; type: binding
[4] = Metabolic stability in mouse liver microsomes; type: in vitro ADME; conditions: mouse, liver microsomes; for half-life at 2 μM: Table 4, read-out: MLM t1/2
Procedure: (§2) The samples were collected at specific time-points 0, 30, and 60 min in duplicate. The reactions were terminated by adding an equivalent volume of ice-cold methanol and vortexed. […] Three μL of the supernatant was analyzed by UHPLC-Q Exactive Orbitrap MS (Thermo Fisher Scientific, USA) equipped with 50 mm×4.6 mm column (XDB C-18, Agilent Technologies, USA). The column temperature was maintained at 40° C. The flow rate was at 0.3 mL/min with a 30% mobile phase (acetonitrile containing 0.1% formic acid). Q Exactive MS was operated in positive mode with electrospray ionization. Ultra-pure nitrogen was applied as the sheath (45 arbitrary unit), auxiliary (10 arbitrary unit), sweep (1.0 arbitrary unit) and the collision gas. […] MS data were acquired from 80 to 1,200 Da in profile mode.

[5] = Metabolic stability in human liver microsomes; type: in vitro ADME; conditions: human, liver microsomes; for half-life at 2 μM: Table 4, read-out: HLM t1/2
Procedure: as §2

[6] = 293T relative cell viability; conditions: human, 293T cells
[7] = Apparent solubility in PBS buffer; conditions: for solubility: PBS buffer with 2% DMSO, aqueous buffer, kinetic from dmso stock

With `CNC(=O)CCCn1c(-c2cncc3ccccc23)nc2cccc(C(=O)N[C@@H](C)c3ccc4ccccc4c3)c21` [CDD-1845] the “thrombin inhibition (in words)” value (human thrombin) was “negative”, the “cathepsin B inhibition (in words)” value (Human Cathepsin B) was “negative” and the “renin inhibition (in words)” value (renin) was “negative”. The “MMP-1 inhibition (in words)” value [1] was “negative”, the AUC0-t (Pharmacokinetics in mice) was 14.87 ± 7.79 µM·h and the “AUC0-∞” value (Pharmacokinetics in mice) was 14.93 ± 7.85 µM·h. For the same compound, the CL/F (Pharmacokinetics in mice) was 4.02 ± 1.98 mg/(hr · μmol/L)/kg, the Cmax (Pharmacokinetics in mice) was 8.93 ± 4.55 µM and the MRT0-t (Pharmacokinetics in mice) was 73.2 ± 1.8 min. For the same compound, the “MRT0-∞” value (Pharmacokinetics in mice) was 75 ± 1.2 min, the T1/2 (Pharmacokinetics in mice) was 68.4 ± 19.2 min and the Tmax (Pharmacokinetics in mice) was 19.8 ± 8.4 min.
With `CNC(=O)[C@H]1C[C@H](n2c(-c3cncc4ccccc34)nc3cccc(C(=O)NC(C)c4ccc5ccccc5c4)c32)C1` (some centres unmarked) [CDD-1819] the “thrombin inhibition (in words)” value (human thrombin; fluorescence assay) was “negative”, the “cathepsin B inhibition (in words)” value (Human Cathepsin B) was “negative” and the “renin inhibition (in words)” value (renin) was “negative”. The “MMP-1 inhibition (in words)” value [1] was “negative”, the CL/F (Pharmacokinetics in mice) was 7.26 ± 1.81 mg/(hr · μmol/L)/kg and the MRT last (Pharmacokinetics in mice; mouse, ip, read-out: MRT0-t) was 78.6 ± 7.2 min. It also gave an MRT inf (Pharmacokinetics in mice; mouse, ip, read-out: MRT0-∞) of 85.2 ± 9.6 min, a Tmax (Pharmacokinetics in mice; mouse, ip, read-out: Tmax) of 19.8 ± 8.4 min and an IC50 (HepG2 cells) of over 100000 nM.
In the case of `COc1cc(-c2cccc3[nH]ncc23)cc(C=O)c1OCC(=O)N1CCC(Oc2cccc(C(=O)N(C)C)c2)C1` (centres unmarked) [CDD-1714, 3-((1-(2-(2-formyl-4-(1H-indazol-4-yl)-6-methoxyphenoxy)acetyl)pyrrolidin-3-yl)oxy)-N,N-dimethylbenzamide], the Ki (SARS-COV-2 M^pro-His6; 25 nM enzyme, 15 μM fluorescent peptide, Morrison equation, Inactive = less than 50% inhibition at 25 μM compound, read-out: M^pro-His Ki) is reported as 20.2 ± 3 nM, the Ki ([2]; Morrison equation, read-out: apparent Ki against M^pro) is reported as 24.4 nM and the “stabilization of M^pro in thermal shift assay (in words)” value [3] is reported as “stabilized; also recorded: concentration-dependent stabilization”. For the same compound, the “ΔTm of Mpro at 50 μM compound conc.” value [3] was 2.93 °C, the “ΔTm of HOVPro-Gi.1 at 50 μM compound conc.” value (HOVPro-Gi.1) was −0.11 °C and the “ΔTm of HOVPro-Gii.4 at 50 μM compound conc.” value (HOVPro-Gii.4) was −0.41 °C. For the same compound, the Thrombin inhibition (human thrombin) was “None”, the “thrombin inhibition (in words)” value (human thrombin) was “No inhibition” and the “Human Cathepsin B, Fractional Remaining Activity” value (Human Cathepsin B) was 0.92. The microsomal CLint at 2 μM [4] was 130 µL/min/mg, the half-life at 2 μM [4] was 10.7 min and the microsomal CLint at 2 μM [5] was 132 µL/min/mg. For the same compound, the half-life at 2 μM [5] was 10.5 min, the cytotoxicity at 3 day, 10 μM [6] was 21% and the solubility [7] was 54.4 µM (≈ 29.5 µg/mL).
For `CNCc1cc(-c2cccc3[nH]ncc23)cc(OC)c1OCC(=O)N(C)C` [CDD-1777], the “M^pro-His Ki” value (SARS-COV-2 M^pro-His6) was “Inactive”, the “Ki,app” value [2] was “Inactive” and the “M^pro Ki” value [2] was “Inactive”. The “ΔTm of Mpro at 50 μM compound conc.” value ([3]; 50 μM compound, […]) was 1.00 °C, the cytotoxicity at 3 day, 10 μM [6] was 4% and the solubility [7] was 195 µM (≈ 71.7 µg/mL).
For `CCCC(NC(=O)c1cccc2nc(-c3cncc4ccccc34)n([C@H]3C[C@H](C(=O)NC)C3)c12)c1ccc(C(F)(F)F)cc1` (some centres unmarked) [CDD-1733], the “ΔTm of Mpro at 50 μM compound conc.” value ([3]; 50 μM compound, […], 50 µM) was 7.75 °C, the “ΔTm of HOVPro-Gi.1 at 50 μM compound conc.” value (HOVPro-Gi.1; 50 µM) was −0.74 °C and the “ΔTm of HOVPro-Gii.4 at 50 μM compound conc.” value (HOVPro-Gii.4; 50 µM) was −1.2 °C. For the same compound, the Thrombin inhibition (human thrombin; fluorescence assay) was “None”, the “thrombin inhibition (in words)” value (human thrombin; fluorescence assay) was “No inhibition; also recorded: negative” and the “Human Cathepsin B, Fractional Remaining Activity” value (Human Cathepsin B) was 0.91. The “cathepsin B inhibition (in words)” value (Human Cathepsin B) was “negative”, the “renin inhibition (in words)” value (renin) was “negative” and the “MMP-1 inhibition (in words)” value [1] was “negative”. For the same compound, the AUC0-t (Pharmacokinetics in mice) was 7.80 ± 3.22 µM·h, the CL/F (Pharmacokinetics in mice) was 7.73 ± 2.75 mg/(hr · μmol/L)/kg and the Tmax (Pharmacokinetics in mice) was 60 min. The “Measured apparent solubility in PBS buffer (2% DMSO)” value ([7]; PBS buffer, 2% DMSO) was 30.3 µM.
With `CCC[C@H](NC(=O)c1cccc2nc(-c3cncc4ccccc34)n([C@H]3C[C@H](C(=O)NC)C3)c12)c1ccc(OC(F)F)cc1` [CDD-1780] the Ki (SARS-COV-2 M^pro-His6; Table 3, column a (footnote not given), read-out: Kiapp (nM)^a) was 13.7 ± 1.5 nM, the Ki ([2]; Table 3, column b (footnote not given), read-out: Kiapp (nM)^b) was 15.7 ± 1.6 nM and the “ΔTm of Mpro at 50 μM compound conc.” value ([3]; 50 μM compound, […]) was 9.19 °C. The “ΔTm of HOVPro-Gi.1 at 50 μM compound conc.” value (HOVPro-Gi.1) was −0.18 °C, the “ΔTm of HOVPro-Gii.4 at 50 μM compound conc.” value (HOVPro-Gii.4) was −1.23 °C and the Thrombin inhibition (human thrombin; fluorescence assay) was “None”. For the same compound, the “Human Cathepsin B, Fractional Remaining Activity” value (Human Cathepsin B) was 0.95, the microsomal CLint at 2 μM [4] was 39.5 µL/min/mg and the half-life at 2 μM [4] was 35.1 min. It also gave a microsomal CLint at 2 μM [5] of 76.1 µL/min/mg, a half-life at 2 μM [5] of 18 min and a cytotoxicity at 3 day, 10 μM [6] of 6%. For the same compound, the solubility [7] was 41.8 µM (≈ 25 µg/mL).
